Reference: paper PMC4916434, “Evaluation of the inhibition potential of plumbagin against cytochrome P450 using LC-MS/MS and cocktail approach” (Scientific Reports, 2016)

Assays:
CYP3A2 = target: T1, CYP3A2 (Rattus norvegicus, UniProt P05183); assay type: in vitro ADME
T1 construct: consisting of pooled HLMs (0.5 mg/ml) or RLMs (1 mg/ml) and an NADPH-regenerating system; from tissue; host or cells: rat liver microsomes prepared in house
T1 sequence (P05183 1-504): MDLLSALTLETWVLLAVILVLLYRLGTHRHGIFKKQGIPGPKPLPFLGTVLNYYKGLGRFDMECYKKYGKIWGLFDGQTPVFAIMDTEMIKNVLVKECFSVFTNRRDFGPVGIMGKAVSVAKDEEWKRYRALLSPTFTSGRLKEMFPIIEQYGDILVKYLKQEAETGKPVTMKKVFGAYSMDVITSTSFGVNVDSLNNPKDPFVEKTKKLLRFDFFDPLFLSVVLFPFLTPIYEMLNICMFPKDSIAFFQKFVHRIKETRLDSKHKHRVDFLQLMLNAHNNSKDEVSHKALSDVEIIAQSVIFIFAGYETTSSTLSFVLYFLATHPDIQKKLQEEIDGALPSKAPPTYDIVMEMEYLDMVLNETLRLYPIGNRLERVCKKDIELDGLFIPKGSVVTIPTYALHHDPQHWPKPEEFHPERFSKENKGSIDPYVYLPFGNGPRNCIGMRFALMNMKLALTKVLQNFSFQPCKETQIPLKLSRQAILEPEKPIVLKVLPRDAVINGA
Procedure: (§1) In this study, the rats were fasted overnight and killed by cervical dislocation before removal of the liver. The liver was excised, rinsed with ice-cold saline (0.9% NaCl w/v), weighed and homogenized in a […] Tris/KCl buffer (pH 7.4). Subsequently, the homogenate was centrifuged at 10,000 × g at 4 °C for 30 min. The supernatant was then centrifuged at 105,000 × g at 4 °C for 60 min. The pellet was reconstituted with […] Tris/KCl buffer (pH 7.4) and stored at −150 °C until use. The protein concentration of the liver microsomes was determined by a protein quantitative assay using bicinchoninic acid[22].
(§2) Microsomal incubation was carried out at 37 °C in a mixture of 200 μl in 0.05 M Tris/HCl buffer (pH 7.4) consisting of pooled HLMs (0.5 mg/ml) or RLMs (1 mg/ml) and an NADPH-regenerating system including MgCl2 (5 mM), G6P (10 mM), G6PDH (0.4 U/ml) and NADP (1 mM). Substrates were added into the incubation mixture and obtained the final concentrations (10 μM phenacetin for CYP1A2, 20 μM bupropion for CYP2B1/6, 20 μM tolbutamide for CYP2C9/11, 5 μM dextromethorphan for CYP2D1/6, 20 μM chlorzoxazone for CYP2E1 and 10 μM midazolam for CYP3A2/4), which were close to Km respectively. The proportion of organic solvent was not higher than 1% (v/v) in the incubation mixture. After pre-incubation for 5 min, the reaction was initiated by addition of NADP. Incubations were performed for 20 min, stopped by adding 200 μl ice-cold acetonitrile. And then 20 μl internal standard solution was added (3-acetamidophenol 2 μg/ml, chlorpropamide 2 μg/ml and mebendazole 2 μg/ml). The solution was mixed thoroughly for 3 min and centrifuged for 10 min at 16,000 × g at 4 °C. The supernatant (60 μl) was transferred to autosampler vials, and 2 μl was injected into LC-MS/MS system.
(§3) The IC50 (concentration of inhibitor to cause 50% inhibition of original enzyme activity) values were determined with the same incubation condition above. The specific concentrations of plumbagin were ranged from 0.1 μM to 50 μM. The IC50 values were calculated by plotting relative activities over the logarithm of plumbagin concentrations using GraphPad Prism 5.0 (GraphPad software Inc., CA, USA).
(§4) Cocktail probe substrates were then added and incubated for 20 min. Reactions were stopped with 200 μl ice-cold acetonitrile. The samples were treated according to the microsomal incubation method and then injected into LC-MS/MS for analysis.
(§5) Kinetic studies were performed for determining the types of inhibition on CYP by plumbagin. Pooled HLMs (0.5 mg/ml) or RLMs (1 mg/ml) with plumbagin (1 μM, 2 μM, 5 μM and 10 μM) were incubated in 0.05 M Tris/HCl buffer (pH 7.4) for 20 min at 37 °C. A series of concentrations for cocktail probe substrates were used: 2.5–20 μM phenacetin for CYP1A2; 5–40 μM bupropion for CYP2B1/6; 5–40 μM tolbutamide for CYP2C9/11; 1.25–10 μM dextromethorphan for CYP2D1/6; 5–40 μM chlorzoxazone for CYP2E1; 2.5–80 μM midazolam for CYP3A2; and 0.625–5 μM midazolam for CYP3A4. Enzyme kinetics as well as statistical analysis were performed using GraphPad Prism 5.0.
(§6) All data were presented as mean ± SD. The IC50 values were fitted by non-linear regression analysis using GraphPad Prism 5.0. The kinetic parameters were obtained by fitting velocity data to kinetic models (Michaelis-Menten) using GraphPad Prism 5.0. The Lineweaver-Burk Plot (the reciprocal of reaction velocities versus the reciprocal of substrates concentrations) was used to determine the quality of fit to a specific inhibition model. The inhibition constant (Ki) was obtained by a secondary plot using the slopes of the primary Lineweaver-Burk Plot (Km/Vmax versus inhibitor concentrations). αKi was obtained from a secondary plot using the y-intercepts of the Lineweaver-Burk plot (1/Vmax versus inhibitor concentrations). All results were analyzed in quadruplicate. One-way analysis of variance was used to estimate the significance of differences. […]

CYP2C11 = target: T2, CYP2C11 (Rattus norvegicus, UniProt P08683); assay type: in vitro ADME
T2 construct: consisting of pooled HLMs (0.5 mg/ml) or RLMs (1 mg/ml) and an NADPH-regenerating system; from tissue; host or cells: rat liver microsomes prepared in house
T2 sequence (P08683 1-500): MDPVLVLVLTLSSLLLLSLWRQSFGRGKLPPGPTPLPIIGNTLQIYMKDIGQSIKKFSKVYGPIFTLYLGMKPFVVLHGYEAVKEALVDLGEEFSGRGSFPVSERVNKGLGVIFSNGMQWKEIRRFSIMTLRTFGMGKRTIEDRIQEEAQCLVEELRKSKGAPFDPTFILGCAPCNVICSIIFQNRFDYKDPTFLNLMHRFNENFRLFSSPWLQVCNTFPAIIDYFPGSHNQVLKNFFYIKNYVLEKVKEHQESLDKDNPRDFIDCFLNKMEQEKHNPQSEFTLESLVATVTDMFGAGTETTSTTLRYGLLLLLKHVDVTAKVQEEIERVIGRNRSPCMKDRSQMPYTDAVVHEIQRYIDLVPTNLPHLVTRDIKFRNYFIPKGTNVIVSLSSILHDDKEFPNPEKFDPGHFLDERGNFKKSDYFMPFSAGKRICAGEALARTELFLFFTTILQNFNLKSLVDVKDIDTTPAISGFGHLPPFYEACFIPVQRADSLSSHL
Procedure: as §1, §2, §3, §4, §5, §6

## CC1=CC(=O)c2c(O)cccc2C1=O [plumbagin, 5-hydroxy-2-methyl-1,4-naphthoquinone]
CYP3A2
  IC50: 8.47 µM
CYP2C11
  IC50: 3.85 µM
  Ki: 7.85 µM
  Type of inhibition: competitive
